Biological target: T1, LAT1/CD98 heterodimer HAT complex (Homo sapiens, UniProt P08195+Q01650)
T1 construct: in the tumor cell lines earlier found to be highly sensitive to S1-F4 treatment; endogenous in cells
Experiment: Amino acid (HPG) uptake assay
Assay type: cell-based
Conditions: HepG2 and Raji cells; antibody 15 μg/ml, BCH 10 mM
Method: Cells were incubated with 15 μg/ml antibody for 24 hr in growth medium. Then they were equilibrated for 30 min at 37° C. with Met-free DMEM. HPG (Thermo Fisher Scientific) was added to the cells at a final concentration of 70 μM. […] After 2-3 hr, cells were washed with PBS and lysed with lysis buffer (1% SDS in 50 mM Tris-HCL, pH 8.0) with complete protease inhibitors (Roche). HPG in cell lysis was biotinylated according to manufacturer instructions (Thermo Fisher Scientific). Then cell lysis was transferred into 96 well plate (Nunc, MaxiSorp™) and incubated at 4° C. overnight. The amount of HGP in cell lysates was then detected by streptavidin-HRP (Thermo Fisher Scientific) in an ELISA-based assay.
Amino acid uptake assay was conducted to analyze the effect of S1-F4 in amino acid transport. L-Homopropargylglycine (HPG), a methionine mimic, was used as a traceable substrate for the LAT1 (L-type/large neutral amino acid transporter 1)/CD98 heterodimer HAT complex, and the LAT1/CD98 complex inhibitor BCH (2-amino-2-norbornane-carboxylic acid) was used as a positive control for disrupting transport function.

T1 sequence (P08195 103-630 limits assumed): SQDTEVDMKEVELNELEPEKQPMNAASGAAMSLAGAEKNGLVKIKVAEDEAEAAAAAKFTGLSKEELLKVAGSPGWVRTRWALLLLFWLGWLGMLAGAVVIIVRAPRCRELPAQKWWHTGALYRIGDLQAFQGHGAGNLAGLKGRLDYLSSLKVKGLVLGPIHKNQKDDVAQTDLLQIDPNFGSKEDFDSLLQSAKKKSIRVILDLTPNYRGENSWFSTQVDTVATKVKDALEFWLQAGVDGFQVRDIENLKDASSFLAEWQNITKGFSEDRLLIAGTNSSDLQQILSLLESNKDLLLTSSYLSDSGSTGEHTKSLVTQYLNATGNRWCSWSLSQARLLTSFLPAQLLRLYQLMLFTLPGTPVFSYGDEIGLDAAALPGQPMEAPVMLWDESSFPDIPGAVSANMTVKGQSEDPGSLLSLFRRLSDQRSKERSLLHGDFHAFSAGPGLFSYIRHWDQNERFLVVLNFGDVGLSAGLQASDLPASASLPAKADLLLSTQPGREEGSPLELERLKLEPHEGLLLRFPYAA
T1 sequence (Q01650 whole entry): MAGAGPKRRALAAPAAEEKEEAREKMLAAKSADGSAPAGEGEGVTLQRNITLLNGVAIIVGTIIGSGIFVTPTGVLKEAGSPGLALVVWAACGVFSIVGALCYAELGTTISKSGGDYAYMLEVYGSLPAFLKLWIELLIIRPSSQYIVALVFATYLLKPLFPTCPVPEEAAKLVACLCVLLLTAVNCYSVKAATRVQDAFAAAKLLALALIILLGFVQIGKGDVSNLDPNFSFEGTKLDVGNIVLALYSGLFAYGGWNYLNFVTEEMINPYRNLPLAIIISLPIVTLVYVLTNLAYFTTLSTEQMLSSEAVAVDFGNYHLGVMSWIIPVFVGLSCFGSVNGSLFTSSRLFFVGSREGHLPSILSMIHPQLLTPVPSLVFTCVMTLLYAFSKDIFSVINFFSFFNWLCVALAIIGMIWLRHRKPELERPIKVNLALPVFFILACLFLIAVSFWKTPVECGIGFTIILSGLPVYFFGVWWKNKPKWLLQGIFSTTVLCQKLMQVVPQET

## NC1(C(=O)O)CC2CCC1C2 (stereo not shown) [BCH, 2-amino-2-norbornane-carboxylic acid]
  HPG uptake / HAT complex transport activity: impaired HAT complex transport activity

Reference: US20250084177A1, “ANTI-CD98 ANTIBODIES AND USES THEREOF” (HUAHUI HEALTH LTD., priority 2021, published 2025)
